pEC50: −log10 of the molar value. Like-named read-outs stand apart in the source and are kept apart here.

For 13 compounds, EC50 and DC50 results are on record in patent US20210369853A1, “TARGETED PROTEASE DEGRADATION PLATFORM” (EUBULUS BIOTHERAPEUTICS INC., priority 2018, published 2021).

Common to all, as to assay type: cell-based
The test system of experiment [1] is Human Monocytic Leukemia MV4-11. The experiment can be described thus: Cell proliferation experiment (Alarm blue, 72 h, EC50). The note with it: Homo sapiens. The essentials: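 Log-phase cells, passaged at least 2 generations, were seeded in 96-well plates and exposed to test compound in complete medium as a 5-fold dilution series in duplicate for 72 h. Fluorescence was read by Alamar blue and EC50 fitted to a four-parameter curve (Min, Max, Slope).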

Another experiment addresses T1, BRD4 (Homo sapiens, UniProt O60885).
T1 construct: endogenous in cells
The experiment can be described thus: Western blot, protein degradation (DC50). The protocol: (§1) Cells were treated with the compound for a period of time, after that the cells were collected by centrifugation. After washing with PBS, the cells were lysed by adding RIPA buffer; the cell lysate were added to the loading buffer and then appropriate volume were taken and slowly added to the corresponding wells of the gel plate, and run the SDS-PAGE gel (4%-12%). After running the gel, transferred to the PVDF membrane and sealed with 5% skimmed milk powder at room temperature for 1 hour. The membrane was placed in the primary antibody diluted with 5% skimmed milk powder and shaked slowly overnight at 4° C. After incubation with primary antibody, the membrane was washed 3 times using a TBST shaker; added secondary antibody diluted with 5% skimmed milk powder corresponding to the primary antibody, and shaked slowly at room temperature for 1 hour. After incubation with secondary antibody, the membrane was washed 3 times using the TBST shaker again. The PVDF membrane was flatted in the cassette, the strip was evenly infiltrated with ECL developer solution, and placed in ChemDoc XRS+ gel imager for taking pictures. The intensity of protein bands was analyzed quantitatively using ImageJ software.

The target of the next experiment is T2, PLK1 (Homo sapiens, UniProt P53350).
T2 construct: endogenous in cells
The experiment can be described thus: Western blot, protein degradation (DC50). The protocol:
as §1

Where [2] appears, read: 6 h, western blot, read-out: BRD4 DC50 (6 h).
[3] abbreviates: 6 h, western blot, read-out: PLK1 DC50 (6 h).
Where [4] appears, read: 24 h, read-out: BRD4 DC50 (nM) (24 h).
Setting [5] is: 24 h, read-out: PLK1 DC50 (nM) (24 h).
[6] abbreviates: 24 h, western blot, read-out: BRD4 DC50 (24 h).
Setting [7] is: 24 h, western blot, read-out: PLK1 DC50 (24 h).

T2 sequence (P53350 whole entry): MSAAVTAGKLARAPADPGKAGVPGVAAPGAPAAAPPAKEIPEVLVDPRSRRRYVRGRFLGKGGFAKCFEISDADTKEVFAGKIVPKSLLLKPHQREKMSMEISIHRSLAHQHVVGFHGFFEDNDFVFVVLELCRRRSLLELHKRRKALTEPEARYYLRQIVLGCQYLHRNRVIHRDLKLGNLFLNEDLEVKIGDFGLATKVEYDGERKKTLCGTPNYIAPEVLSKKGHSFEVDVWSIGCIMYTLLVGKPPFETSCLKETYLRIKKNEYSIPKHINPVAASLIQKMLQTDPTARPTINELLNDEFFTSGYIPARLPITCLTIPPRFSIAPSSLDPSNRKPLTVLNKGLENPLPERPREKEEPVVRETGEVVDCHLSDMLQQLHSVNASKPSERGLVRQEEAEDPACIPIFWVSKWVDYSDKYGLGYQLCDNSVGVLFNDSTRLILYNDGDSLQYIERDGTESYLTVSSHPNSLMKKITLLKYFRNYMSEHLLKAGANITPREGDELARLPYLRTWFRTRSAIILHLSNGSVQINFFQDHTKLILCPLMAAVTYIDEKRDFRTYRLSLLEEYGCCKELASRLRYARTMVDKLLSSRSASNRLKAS

`CC[C@@H]1C(=O)N(C)c2cnc(Nc3ccc(C(=O)NCCNc4cccc5c4CN(C4CCC(=O)NC4=O)C5=O)cc3OC)nc2N1C1CCCC1` (some centres unmarked) [UB-180567] showed a pEC50 in experiment [1] (MV4-11, MV4;11 cells) of 7.00 to 8.00. Also, the DC50 on BRD4 (setting [2]) and at PLK1 (setting [3]) was above 1000 nM in each case.

Turning to `CC[C@@H]1C(=O)N(C)c2cnc(Nc3ccc(C(=O)NC4CCN(CCOCCNCC(=O)Nc5cccc6c5CN(C5CCC(=O)NC5=O)C6=O)CC4)cc3OC)nc2N1Cc1cnc(C)s1` (some centres unmarked) [UB-180745], the negative-log EC50 (pEC50) in experiment [1] (MV4-11, MV4;11 cells) is above 8.00. Moreover, the DC50 was below 10 nM at BRD4 (6 h, read-out: BRD4 DC50 (nM) (6 h)); below 10 nM on BRD4 (setting [4]); above 1000 nM on PLK1 (6 h, read-out: PLK1 DC50 (nM) (6 h)); below 10 nM at PLK1 (setting [5]).

In turn, `CC[C@@H]1C(=O)N(C)c2cnc(Nc3ccc(C(=O)NCCCNCCCCCCCC(=O)Nc4cccc5c4CN(C4CCC(=O)NC4=O)C5=O)cc3OC)nc2N1C1CCCC1` (some centres unmarked) [UB-180632] gave a pEC50 in experiment [1] (MV4-11, MV4;11 cells) of 7.00 to 8.00. The DC50 on BRD4 (6 h, read-out: BRD4 DC50 (6 h)) is below 10 nM; at PLK1 (6 h, read-out: PLK1 DC50 (6 h)) it was below 10 nM.

In experiment [1] (MV4;11 cells), `CC[C@@H]1C(=O)N(C)c2cnc(Nc3ccc(C(=O)NCCOCCOCCOCCNCC(=O)Nc4cccc5c4CN(C4CCC(=O)NC4=O)C5=O)cc3OC)nc2N1C1CCCC1` (some centres unmarked) [UB-180663] had a pEC50 of 7.00 to 8.00. Also, the DC50 at BRD4 (setting [2]), at BRD4 (setting [6]), on PLK1 (setting [3]) and at PLK1 (setting [7]) was below 10 nM each time.

`CC[C@@H]1C(=O)N(C)c2cnc(Nc3ccc(C(=O)NCCCNc4cccc5c4C(=O)N(C4CCC(=O)NC4=O)C5=O)cc3OC)nc2N1C1CCCC1` (some centres unmarked) [UB-180579] had a pEC50 in experiment [1] (MV4-11, MV4;11 cells) of 7.00 to 8.00. In addition, the DC50 on BRD4 (6 h, read-out: BRD4 DC50 (6 h)) was in the range of 100 to 1000 nM; at PLK1 (6 h, read-out: PLK1 DC50 (6 h)) it was 100 to 1000 nM.

In experiment [1] (MV4-11, MV4;11 cells), `CC[C@@H]1C(=O)N(C)c2cnc(Nc3ccc(C(=O)NCCCNCCCCCCCC(=O)Nc4cccc5c4CN(C4CCC(=O)NC4=O)C5=O)cc3OC)nc2N1Cc1ccc(Cl)s1` (some centres unmarked) [UB-180674] had a pEC50 above 8.00. The DC50 at BRD4 (setting [2]) and on PLK1 (setting [3]) was below 10 nM each time.

Regarding `CC[C@@H]1c2c(C#N)ncn2-c2cnc(Nc3ccc(C(=O)NCc4cn(CCNCCOCC(=O)Nc5cccc6c5CN(C5CCC(=O)NC5=O)C6=O)nn4)cc3OC)nc2N1C1CCCC1` (some centres unmarked) [UB-180718], the pEC50 in experiment [1] (MV4-11, MV4;11 cells) was 6.00 to 7.00. Further, the half-maximal degradation concentration (DC50) at BRD4 (setting [4]) and at PLK1 (setting [5]) was 100 to 1000 nM each time.

Regarding `CC[C@@H]1C(=O)N(C)c2cnc(Nc3ccc(C(=O)NCCCNCCCCC(=O)Nc4cccc5c4CN(C4CCC(=O)NC4=O)C5=O)cc3OC)nc2N1Cc1ccc(Cl)s1` (some centres unmarked) [UB-180673], the pEC50 in experiment [1] (MV4-11, MV4;11 cells) was 7.00 to 8.00. Further, the DC50 on BRD4 (setting [2]) and at PLK1 (setting [3]) was 10 to 100 nM in each case.

`CC[C@@H]1C(=O)N(C)c2cnc(Nc3ccc(C(=O)NCCOCCOCCOCCC(=O)N[C@H](C(=O)N4C[C@H](O)C[C@H]4C(=O)NCc4ccc(-c5scnc5C)cc4)C(C)(C)C)cc3OC)nc2N1Cc1ccc(Br)cc1` [UB-180602]: the DC50 at BRD4 (6 h, read-out: BRD4 DC50 (6 h)) is above 1000 nM; at PLK1 (6 h, read-out: PLK1 DC50 (6 h)) it was above 1000 nM.

In the case of `CC[C@@H]1C(=O)N(C)c2cnc(Nc3ccc(C(=O)NCCCNCCCCCC(=O)Nc4cccc5c4CN(C4CCC(=O)NC4=O)C5=O)cc3OC)nc2N1C1CCCC1` (some centres unmarked) [UB-180659], the pEC50 in experiment [1] (MV4;11 cells) is 7.00 to 8.00. In addition, the DC50 on BRD4 (setting [6]) is below 10 nM; on PLK1 (setting [7]), 100 to 1000 nM.

On to `CC[C@@H]1C(=O)N(C)c2cnc(Nc3ccc(C(=O)NCc4cn(CCCN(CCC(=O)Nc5cccc6c5CN(C5CCC(=O)NC5=O)C6=O)C(=O)OCc5ccc(NC(=O)[C@H](CCCNC(N)=O)NC(=O)[C@@H](NC(=O)CCCCCN6C(=O)C=CC6=O)C(C)C)cc5)nn4)cc3OC)nc2N1C1CCCC1` (some centres unmarked) [UB-180717], for which, in experiment [1] (MV4-11, MV4;11 cells), the pEC50 was 6.00 to 7.00. Also, the DC50 at BRD4 (setting [4]) and at PLK1 (setting [5]) was 10 to 100 nM throughout.

For `CC[C@@H]1C(=O)N(C)c2cnc(Nc3ccc(C(=O)NCCOCCOCCOCC(=O)N[C@H](C(=O)N4C[C@H](O)C[C@H]4C(=O)NCc4ccc(-c5scnc5C)cc4)C(C)(C)C)cc3OC)nc2N1Cc1ccc(Br)cc1` [UB-180601], the DC50 at BRD4 (6 h, read-out: BRD4 DC50 (6 h)) is above 1000 nM; on PLK1 (6 h, read-out: PLK1 DC50 (6 h)), above 1000 nM.

In experiment [1] (MV4-11, MV4;11 cells), `CC[C@@H]1C(=O)N(C)c2cnc(Nc3ccc(C(=O)NC4CCN(CCNCCOCC(=O)Nc5cccc6c5CN(C5CCC(=O)NC5=O)C6=O)C4)cc3OC)nc2N1C1CCCC1` (some centres unmarked) [UB-180703] showed a pEC50 of 7.00 to 8.00. For the same compound, the DC50 at BRD4 (setting [6]) was below 10 nM; at PLK1 (setting [7]), 10 to 100 nM.
